Article PMC12281142, “A potent phenylalkylamine disrupts mycobacterial membrane bioenergetics and augments bactericidal activity of bedaquiline” (iScience, 2025)

What was measured:
Mtb H37Rv = settings: drug sensitive and resistant strains of Mtb H37Rv; cited from earlier work
M. bovis BCG = type: cell-based, Mycobacterium bovis BCG

Structure (SMILES)	decrease in BDQ MIC caused by VP (Mtb H37Rv)	spontaneous mutation frequency (M. bovis BCG)
COc1ccc(CCN(C)CCCC(C#N)(c2ccc(OC)c(OC)c2)C(C)C)cc1OC (centres unmarked) [VP, verapamil, reference compound]	20 fold	
CCCCCCCCC(C#N)(CCCN(C)CCc1ccc(OC)c(OC)c1)c1ccc(OC)c(OC)c1 (centres unmarked) [PhA2]		< 10^−9 /CFU
